Bridge positions count the residues as written; N and C are the ends. Square brackets hold non-standard residues; d marks the D form. Peptide text beside a SMILES is read from it. * marks the point of attachment. Octanoyl = CCCCCCCC(=O)*; Dab = NCC[C@H](N)C(=O)O; Abu = CC[C@H](N)C(=O)O
Key:
E. coli IH3080 [1] = experiment: Growth inhibition around wells on LB agar plates; type: cell-based, Escherichia coli; details: 18 h at 37°C; for Antibacterial activity at 4 µg: growth inhibition area around a well containing 4 µg of compound; for Antibacterial activity at 10 µg: growth inhibition area around a well containing 10 µg of compound
Method: Peptides synthesized in Example 1, all carrying at least two (2) but not more than three (3) positive charges, were studied for their ability to inhibit the growth of E. coli. This was tested employing LB agar (LB Agar Lennox, Difco, BD, Sparks, MD, U.S.A) plates. The indicator organism E. coli IH3080 (K1:O18) was an encapsulated strain originally isolated from a neonate suffering from meningitis (Vaara et al. 1984) and obtained from National Public Health Institute, Helsinki, Finland.
(§1) From an overnight-grown culture of IH3080 on LB agar, a suspension of approx. 10^8 cells/ml was prepared in 0.9% NaCl. Aliquots of this suspension were then pipetted on the agar plates and the plates were gently shaken to spread the suspension evenly on the entire surface of the plate. Thereafter, the unabsorbed part of the suspension was removed by using a Pasteur pipette. After the surface had dried, small wells (diameter, 2 mm) were drilled on the plates (five wells per plate) by using a sterile sharp-edged narrow metal tube, single-use pipette tip, and vacuum suction. […] Controls included 0.9% NaCl solution without the compound to be tested. The plates were then incubated for 18 h at 37°C whereafter the diameters of growth inhibition zones around each well were measured; the diameter of the well itself was […]. Finally, the diameters were converted to surface areas of growth inhibition (in square mm).

A. baumannii ATCC 19606 = experiment: Growth inhibition around wells on LB agar plates; type: cell-based, Acinetobacter baumannii; details: for Antibacterial activity 4 µg: growth inhibition area around a well containing 4 µg; for Antibacterial activity 10 µg: growth inhibition area around a well containing 10 µg
Method: (§2) From an overnight-grown culture of IH3080 on LB agar, a suspension of approx. 10^8 cells/ml was prepared in 0.9% NaCl. Aliquots of this suspension were then pipetted on the agar plates and the plates were gently shaken to spread the suspension evenly on the entire surface of the plate. Thereafter, the unabsorbed part of the suspension was removed by using a Pasteur pipette. After the surface had dried, small wells (diameter, 2 mm) were drilled on the plates (five wells per plate) by using a sterile sharp-edged narrow metal tube, single-use pipette tip, and vacuum suction. Samples (4 µl and 10 µl) of the peptide solution in 0.9% NaCl (at concentrations of 1 µg/ml and 0.1 µg/ml) were then pipetted to the wells and the sample fluids were allowed to absorb. Controls included 0.9% NaCl solution without the compound to be tested. The plates were then incubated for 18 h at 37°C whereafter the diameters of growth inhibition zones around each well were measured; the diameter of the well itself was […]. Finally, the diameters were converted to surface areas of growth inhibition (in square mm).
(§3) Direct antibacterial activity of twelve NAB compounds against Acinetobacter baumannii ATCC 19606 and Pseudomonas aeruginosa ATCC 27853 was tested by using the susceptibility determination method described in Example 2. Five compounds (NAB7062, NAB734, NAB737, NAB739, and NAB740) had notable activity against A. baumannii. […] The antibacterial activity of NAB739 and NAB740 were as strong as or even stronger than that of polymyxin B.

[2] = system: Ps. aeruginosa ATCC 27853; experiment: Growth inhibition around wells on LB agar plates; type: cell-based, Pseudomonas aeruginosa; details: for Antibacterial activity 4 µg: growth inhibition area around a well containing 4 µg; for Antibacterial activity 10 µg: growth inhibition area around a well containing 10 µg
Method: as §2, §3

E. coli IH3080 [3] = experiment: Growth inhibition around wells on LB plates containing rifampin (sensitization); type: cell-based, Escherichia coli; details: well containing 4 µg of compound; for Antibacterial activity in the presence of rifampin concn (µg/ml) of 0: plates with no rifampin; for Antibacterial activity in the presence of rifampin concn (µg/ml) of 0.1: rifampin 0.1 µg/ml; for Antibacterial activity in the presence of rifampin concn (µg/ml) of 1.0: rifampin 1.0 µg/ml
Method: as §1, with “mm). […] Louis, MO, U.S.A).” for “mm).”

E. cloacae ATCC23355 [4] = system: E. cloacae ATCC23355
Method: (§4) MICs were determined by using E-strips (Biodisk Ltd., Solna, Sweden) according to the manufacturer's instructions.
(§5) The strains originated from ATCC (11 strains), CCUG (11 strains), and NCTC (The National Collection of Type Cultures, Colindale, U.K.; 2 strains). Eight strains (the F-strains) were purchased from Mobidiag Ltd., Helsinki, Finland.

E. coli IH3080 [5] = system: E. coli IH3080
Method: as §4, §5

K. pneumoniae ATCC13883 = system: K. pneumoniae ATCC13883
Method: as §4, §5

[6] = Two-week intravenous toxicity study in young rats; type: in vivo; details: for rise of blood urea nitrogen (BUN) over control or low dose group: 16 mg/kg/day
Method: Toxicity in young rats (weighing approx. 150 g in the beginning of the study) was determined by administering doses (1, 2, 4, 8, 16, and 32 mg/kg per day) of NAB7061 as well as the control compound polymyxin B intravenously twice (2) a day for two weeks. A group of ten (10) rats was studied for each dosis regimen. Clinical observations were made daily, the body weight measured twice weekly, and the food consumption twice weekly. In the end of week 2, all animals were sacrificed.
Histopathology of kidneys was performed for each animals and histopathology of all tissues was performed in three high-dose groups receiving NAB7061.

E. cloacae ATCC23355 [7] = experiment: Growth inhibition around wells on LB agar plates; type: cell-based, Enterobacter cloacae; details: growth inhibition area around well
Method: as §2
The susceptibility of eleven Gram-negative bacterial strains (nine different species) to NAB734 and polymyxin B was compared by using the susceptibility determination method described in Example 2. […]

[8] = E. cloacae ATCC23355, 4 µg/ml of NAB 7061
[9] = E. coli IH3080, 4 µg/ml of NAB 7061
[10] = K. pneumoniae ATCC1 3883, 4 µg/ml of NAB 7061

CCCCCCCC(=O)N[C@H](C(=O)N[C@@H](CC)C(=O)N[C@H]1CCNC(=O)[C@H]([C@@H](C)O)NC(=O)[C@H](CCN)NC(=O)[C@H](CCN)NC(=O)[C@H](CC(C)C)NC(=O)[C@@H](Cc2ccccc2)NC(=O)[C@H](CCN)NC1=O)[C@@H](C)O [NAB 7061, OA-Thr-Abu-cy[Dab-Dab-DPhe-Leu-Dab-Dab-Thr-]] (Octanoyl-T[Abu][Dab][Dab][dF]L[Dab][Dab]T; lactam 3-C)
Antibacterial activity at 4 µg (E. coli IH3080 [1]): 0 square millimeters | Antibacterial activity at 10 µg (E. coli IH3080 [1]): 50 square millimeters | Antibacterial activity 4 µg (A. baumannii ATCC 19606): 0 square millimeters | Antibacterial activity 10 µg (A. baumannii ATCC 19606): 0 square millimeters | Antibacterial activity 4 µg [2]: 0 square millimeters | Antibacterial activity 10 µg [2]: 0 square millimeters | Antibacterial activity in the presence of rifampin concn (µg/ml) of 0 (E. coli IH3080 [3]): 0 square millimeters | Antibacterial activity in the presence of rifampin concn (µg/ml) of 0.1 (E. coli IH3080 [3]): […] | Antibacterial activity in the presence of rifampin concn (µg/ml) of 1.0 (E. coli IH3080 [3]): 155 square millimeters | MIC (µg/ml) of clarithromycin in the presence of 4 µg/ml of NAB 7061 (E. cloacae ATCC23355 [4]; E. cloacae ATCC23355): 0,25 - 0,75 µg/ml | MIC (µg/ml) of rifampin in the presence of 4 µg/ml of NAB 7061 (E. cloacae ATCC23355 [4]; E. cloacae ATCC23355): 0,008 - 0,016 µg/ml | Sensitization factor to clarithromycin (E. cloacae ATCC23355 [4]; [8]): […] | Sensitization factor to rifampin (E. cloacae ATCC23355 [4]; [8]): […] | MIC of NAB7061 (E. cloacae ATCC23355 [4]; E. cloacae ATCC23355, Mueller-Hinton agar): […] | MIC (µg/ml) of clarithromycin in the presence of 4 µg/ml of NAB 7061 (E. coli IH3080 [5]; E. coli IH3080): […] | MIC (µg/ml) of rifampin in the presence of 4 µg/ml of NAB 7061 (E. coli IH3080 [5]; E. coli IH3080): […] | Sensitization factor to clarithromycin (E. coli IH3080 [5]; [9]): […] | Sensitization factor to rifampin (E. coli IH3080 [5]; [9]): […] | MIC of NAB7061 (E. coli IH3080 [5]; E. coli IH3080, Mueller-Hinton agar): […] | MIC (µg/ml) of clarithromycin in the presence of 4 µg/ml of NAB 7061 (K. pneumoniae ATCC13883; K. pneumoniae ATCC1 3883): […] | MIC (µg/ml) of rifampin in the presence of 4 µg/ml of NAB 7061 (K. pneumoniae ATCC13883; K. pneumoniae ATCC1 3883): […] | Sensitization factor to clarithromycin (K. pneumoniae ATCC13883; [10]): […] | Sensitization factor to rifampin (K. pneumoniae ATCC13883; [10]): […] | MIC of NAB7061 (K. pneumoniae ATCC13883; K. pneumoniae ATCC13883, Mueller-Hinton agar): […] | rise of blood urea nitrogen (BUN) over control or low dose group ([6]; rat, in vivo): no such a rise was found | general pathology and histopathology of organs and kidneys ([6]; rat, in vivo, iv): No NAB7061-related pathological findings | lowest dose that negatively influenced the body weight gain ([6]; rat, in vivo, iv): 8 mg/kg | rise of blood urea nitrogen (BUN) ([6]; rats, 32 mg/kg per day, end of the study): 7% | survival ([6]; rats, 1 to 32 mg/kg per day intravenously, two weeks): all rats receiving NAB7061 remained alive throughout the study

Polymyxin B
Antibacterial activity at 4 µg (E. coli IH3080 [1]): 79 square millimeters | Antibacterial activity at 4 µg (E. coli IH3080 [1]; listed as Polymyxin B sulfate): 95 square millimeters | Antibacterial activity at 10 µg (E. coli IH3080 [1]): 133 square millimeters | Antibacterial activity 4 µg (A. baumannii ATCC 19606): 113 square millimeters | Antibacterial activity 10 µg (A. baumannii ATCC 19606): 154 square millimeters | Antibacterial activity 4 µg [2]: 95 square millimeters | Antibacterial activity 10 µg [2]: 133 square millimeters | Antibacterial activity 4 µg (E. cloacae ATCC23355 [7]; 4 µg): 95 square millimeters | Antibacterial activity 10 µg (E. cloacae ATCC23355 [7]; 10 µg): 143 square millimeters | Antibacterial activity in the presence of rifampin concn (µg/ml) of 0 (E. coli IH3080 [3]): 79 square millimeters | Antibacterial activity in the presence of rifampin concn (µg/ml) of 0.1 (E. coli IH3080 [3]): 95 square millimeters | Antibacterial activity in the presence of rifampin concn (µg/ml) of 1.0 (E. coli IH3080 [3]): 104 square millimeters | Sensitization factor (E. cloacae ATCC23355 [4]; ratio of the MIC of the antibiotic in the absence of NAB 7061 to that in the presence of 4 µg/ml of NAB 7061, E. cloacae ATCC 23355): 4 | Sensitization factor (E. coli IH3080 [5]; ratio of the MIC of the antibiotic in the absence of NAB 7061 to that in the presence of 4 µg/ml of NAB 7061, E. coli IH 3080): 2 | Sensitization factor (K. pneumoniae ATCC13883; ratio of the MIC of the antibiotic in the absence of NAB 7061 to that in the presence of 4 µg/ml of NAB 7061, K. pneum. ATCC 13883): 1 | rise of blood urea nitrogen (BUN) over control or low dose group ([6]; rat, in vivo): 15% | mortality ([6]; rats, 32 mg/kg per day intravenously, two weeks): 100%
